± gives the standard deviation of the averaged measurements.
Columns and labels:
17-AAG = compound: C=CCNC1=C2C[C@@H](C)C[C@H](OC)[C@H](O)[C@@H](C)/C=C(\C)[C@H](OC(N)=O)[C@@H](OC)/C=C\C=C(/C)C(=O)NC(=CC1=O)C2=O [17-AAG]; assay: surviving fraction relative to DMSO-only wells; higher = less growth inhibition; conditions: exposure time: 5 days
Outline: (§1)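 Tumour cell lines in log phase were plated in 384-well plates at 250–500 cells per well, then, after 24 hours, exposed continuously for five days to inhibitors at 0.5, 1, 5, 10, 50, 100, 500 and 1000 nM. Viability came from CellTiter-Glo luminescence, and surviving fraction is that signal normalised to the median of DMSO-only wells. Plates were read after 10 minutes at room temperature, and each line, screened three times, was kept only when replicate Pearson r was >0.7 and median Z' was >0.3.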

SALINOMYCIN = compound: CC[C@@H](C(=O)[C@@H](C)[C@@H](O)[C@H](C)[C@@H]1O[C@@H]([C@@H](CC)C(=O)O)CC[C@@H]1C)[C@H]1O[C@]2(C=C[C@@H](O)[C@]3(CC[C@@](C)([C@H]4CC[C@](O)(CC)[C@H](C)O4)O3)O2)[C@H](C)C[C@@H]1C [SALINOMYCIN]; assay: as above; conditions: exposure time: 5 days
Outline: as §1

Test System: SCC003 HEADNECK
- surviving fraction (17-AAG; 0.5 nM): 0.839 ± 0.058
- surviving fraction (17-AAG; 1 nM): 0.89 ± 0.024
- surviving fraction (17-AAG; 5 nM): 0.882 ± 0.04
- surviving fraction (17-AAG; 10 nM): 0.789 ± 0.14
- surviving fraction (17-AAG; 50 nM): 1.01 ± 0.074
- surviving fraction (17-AAG; 100 nM): 0.396 ± 0.012
- surviving fraction (17-AAG; 500 nM): 0.195 ± 0.017
- surviving fraction (17-AAG; 1000 nM): 0.0693 ± 0.0095
- surviving fraction (SALINOMYCIN; 0.5 nM): 0.904 ± 0.056
- surviving fraction (SALINOMYCIN; 1 nM): 0.863 ± 0.098
- surviving fraction (SALINOMYCIN; 5 nM): 0.946 ± 0.042
- surviving fraction (SALINOMYCIN; 10 nM): 0.973 ± 0.059
- surviving fraction (SALINOMYCIN; 50 nM): 1.04 ± 0.11
- surviving fraction (SALINOMYCIN; 100 nM): 0.897 ± 0.05
- surviving fraction (SALINOMYCIN; 500 nM): 0.49 ± 0.021
- surviving fraction (SALINOMYCIN; 1000 nM): 0.267 ± 0.016

Test System: SCC36 HEADNECK
- surviving fraction (17-AAG; 0.5 nM): 0.696 ± 0.065
- surviving fraction (17-AAG; 1 nM): 0.767 ± 0.036
- surviving fraction (17-AAG; 5 nM): 0.772 ± 0.089
- surviving fraction (17-AAG; 10 nM): 0.744 ± 0.093
- surviving fraction (17-AAG; 50 nM): 0.518 ± 0.059
- surviving fraction (17-AAG; 100 nM): 0.257 ± 0.012
- surviving fraction (17-AAG; 500 nM): 0.039 ± 0.0027
- surviving fraction (17-AAG; 1000 nM): 0.038 ± 0.0044
- surviving fraction (SALINOMYCIN; 0.5 nM): 0.984 ± 0.07
- surviving fraction (SALINOMYCIN; 1 nM): 0.972 ± 0.12
- surviving fraction (SALINOMYCIN; 5 nM): 1.094 ± 0.0015
- surviving fraction (SALINOMYCIN; 10 nM): 0.973 ± 0.039
- surviving fraction (SALINOMYCIN; 50 nM): 1.11 ± 0.02
- surviving fraction (SALINOMYCIN; 100 nM): 0.925 ± 0.051
- surviving fraction (SALINOMYCIN; 500 nM): 0.149 ± 0.011
- surviving fraction (SALINOMYCIN; 1000 nM): 0.08 ± 0.0078

Test System: SCC47 HEADNECK
- surviving fraction (17-AAG; 0.5 nM): 0.908 ± 0.024
- surviving fraction (17-AAG; 1 nM): 0.925 ± 0.028
- surviving fraction (17-AAG; 5 nM): 0.973 ± 0.014
- surviving fraction (17-AAG; 10 nM): 0.939 ± 0.028
- surviving fraction (17-AAG; 50 nM): 0.964 ± 0.053
- surviving fraction (17-AAG; 100 nM): 0.255 ± 0.032
- surviving fraction (17-AAG; 500 nM): 0.095 ± 0.002
- surviving fraction (17-AAG; 1000 nM): 0.067 ± 0.0044
- surviving fraction (SALINOMYCIN; 0.5 nM): 0.842 ± 0.064
- surviving fraction (SALINOMYCIN; 1 nM): 0.792 ± 0.026
- surviving fraction (SALINOMYCIN; 5 nM): 0.977 ± 0.074
- surviving fraction (SALINOMYCIN; 10 nM): 0.992 ± 0.044
- surviving fraction (SALINOMYCIN; 50 nM): 1.06 ± 0.085
- surviving fraction (SALINOMYCIN; 100 nM): 1 ± 0.12
- surviving fraction (SALINOMYCIN; 500 nM): 0.561 ± 0.068
- surviving fraction (SALINOMYCIN; 1000 nM): 0.489 ± 0.023

Test System: SCC90 HEADNECK
- surviving fraction (17-AAG; 0.5 nM): 0.866 ± 0.0092
- surviving fraction (17-AAG; 1 nM): 0.923 ± 0.12
- surviving fraction (17-AAG; 5 nM): 1 ± 0.11
- surviving fraction (17-AAG; 10 nM): 0.862 ± 0.079
- surviving fraction (17-AAG; 50 nM): 0.793 ± 0.039
- surviving fraction (17-AAG; 100 nM): 0.423 ± 0.064
- surviving fraction (17-AAG; 500 nM): 0.206 ± 0.042
- surviving fraction (17-AAG; 1000 nM): 0.0677 ± 0.013
- surviving fraction (SALINOMYCIN; 0.5 nM): 0.897 ± 0.073
- surviving fraction (SALINOMYCIN; 1 nM): 0.919 ± 0.035
- surviving fraction (SALINOMYCIN; 5 nM): 1.16 ± 0.059
- surviving fraction (SALINOMYCIN; 10 nM): 0.986 ± 0.14
- surviving fraction (SALINOMYCIN; 50 nM): 1.17 ± 0.2
- surviving fraction (SALINOMYCIN; 100 nM): 0.963 ± 0.057
- surviving fraction (SALINOMYCIN; 500 nM): 0.301 ± 0.041
- surviving fraction (SALINOMYCIN; 1000 nM): 0.255 ± 0.067

Test System: SG27 HEADNECK
- surviving fraction (17-AAG; 0.5 nM): 1.046 ± 0.0051
- surviving fraction (17-AAG; 1 nM): 1.07 ± 0.073
- surviving fraction (17-AAG; 5 nM): 0.913 ± 0.039
- surviving fraction (17-AAG; 10 nM): 0.93 ± 0.026
- surviving fraction (17-AAG; 50 nM): 1.31 ± 0.16
- surviving fraction (17-AAG; 100 nM): 1.1 ± 0.24
- surviving fraction (17-AAG; 500 nM): 0.274 ± 0.044
- surviving fraction (17-AAG; 1000 nM): 0.111 ± 0.014
- surviving fraction (SALINOMYCIN; 0.5 nM): 1.03 ± 0.099
- surviving fraction (SALINOMYCIN; 1 nM): 1.09 ± 0.17
- surviving fraction (SALINOMYCIN; 5 nM): 0.997 ± 0.11
- surviving fraction (SALINOMYCIN; 10 nM): 0.921 ± 0.094
- surviving fraction (SALINOMYCIN; 50 nM): 1.12 ± 0.08
- surviving fraction (SALINOMYCIN; 100 nM): 1.1 ± 0.074
- surviving fraction (SALINOMYCIN; 500 nM): 0.249 ± 0.028
- surviving fraction (SALINOMYCIN; 1000 nM): 0.184 ± 0.015

Test System: SG28 HEADNECK
- surviving fraction (17-AAG; 0.5 nM): 0.93 ± 0.048
- surviving fraction (17-AAG; 1 nM): 0.918 ± 0.069
- surviving fraction (17-AAG; 5 nM): 0.86 ± 0.05
- surviving fraction (17-AAG; 10 nM): 0.776 ± 0.064
- surviving fraction (17-AAG; 50 nM): 0.551 ± 0.11
- surviving fraction (17-AAG; 100 nM): 0.322 ± 0.016
- surviving fraction (17-AAG; 500 nM): 0.0967 ± 0.014
- surviving fraction (17-AAG; 1000 nM): 0.0863 ± 0.0032
- surviving fraction (SALINOMYCIN; 0.5 nM): 1.05 ± 0.098
- surviving fraction (SALINOMYCIN; 1 nM): 1.08 ± 0.06
- surviving fraction (SALINOMYCIN; 5 nM): 1.07 ± 0.16
- surviving fraction (SALINOMYCIN; 10 nM): 0.835 ± 0.1
- surviving fraction (SALINOMYCIN; 50 nM): 0.835 ± 0.077
- surviving fraction (SALINOMYCIN; 100 nM): 0.762 ± 0.046
- surviving fraction (SALINOMYCIN; 500 nM): 0.498 ± 0.068
- surviving fraction (SALINOMYCIN; 1000 nM): 0.323 ± 0.037

Test System: SG31 HEADNECK
- surviving fraction (17-AAG; 0.5 nM): 0.87 ± 0.024
- surviving fraction (17-AAG; 1 nM): 0.911 ± 0.052
- surviving fraction (17-AAG; 5 nM): 0.874 ± 0.15
- surviving fraction (17-AAG; 10 nM): 0.753 ± 0.14
- surviving fraction (17-AAG; 50 nM): 0.642 ± 0.064
- surviving fraction (17-AAG; 100 nM): 0.302 ± 0.034
- surviving fraction (17-AAG; 500 nM): 0.047 ± 0.0092
- surviving fraction (17-AAG; 1000 nM): 0.0317 ± 0.0029
- surviving fraction (SALINOMYCIN; 0.5 nM): 1.08 ± 0.15
- surviving fraction (SALINOMYCIN; 1 nM): 1.12 ± 0.036
- surviving fraction (SALINOMYCIN; 5 nM): 1.07 ± 0.089
- surviving fraction (SALINOMYCIN; 10 nM): 0.888 ± 0.097
- surviving fraction (SALINOMYCIN; 50 nM): 0.924 ± 0.048
- surviving fraction (SALINOMYCIN; 100 nM): 0.863 ± 0.093
- surviving fraction (SALINOMYCIN; 500 nM): 0.413 ± 0.033
- surviving fraction (SALINOMYCIN; 1000 nM): 0.317 ± 0.047

Test System: SG32 HEADNECK
- surviving fraction (17-AAG; 0.5 nM): 0.955 ± 0.12
- surviving fraction (17-AAG; 1 nM): 0.834 ± 0.19
- surviving fraction (17-AAG; 5 nM): 0.875 ± 0.16
- surviving fraction (17-AAG; 10 nM): 0.881 ± 0.14
- surviving fraction (17-AAG; 50 nM): 0.528 ± 0.097
- surviving fraction (17-AAG; 100 nM): 0.259 ± 0.042
- surviving fraction (17-AAG; 500 nM): 0.0457 ± 0.0023
- surviving fraction (17-AAG; 1000 nM): 0.034 ± 0.0044
- surviving fraction (SALINOMYCIN; 0.5 nM): 0.944 ± 0.068
- surviving fraction (SALINOMYCIN; 1 nM): 1.13 ± 0.41
- surviving fraction (SALINOMYCIN; 5 nM): 0.951 ± 0.13
- surviving fraction (SALINOMYCIN; 10 nM): 0.729 ± 0.054
- surviving fraction (SALINOMYCIN; 50 nM): 0.921 ± 0.13
- surviving fraction (SALINOMYCIN; 100 nM): 0.636 ± 0.016
- surviving fraction (SALINOMYCIN; 500 nM): 0.133 ± 0.01
- surviving fraction (SALINOMYCIN; 1000 nM): 0.054 ± 0.0044
